Experimental data taken from US8664217B2, “Benzodiazepine compound and pharmaceutical composition” (Otsuka Pharmaceutical Co., Ltd., priority 2008, dated 2014).

`CCN1C(=O)C(C)(C)C(=O)N(C)c2cc(OCCCN(CCc3cccnc3)C(=O)c3ccncc3)ccc21` [Example 459, N-[3-(1-ethyl-3,3,5-trimethyl-2,4-dioxo-2,3,4,5-tetrahydro-1H-benzo[b][1,4]diazepin-7-yloxy)propyl]-N-(2-pyridin-3-ylethyl)isonicotinamide] showed a melting point of 88.1 to 92.2 °C.
